Source: PMC9455983 (International Journal of Molecular Sciences, 2022)
Entries after “also recorded” stand apart in the source; their conditions may differ. Like-named read-outs stand apart in the source and are kept apart here.

How the values were obtained:
mu-opioid receptor (MOR) = target: T1, mu-opioid receptor (MOR) (Rattus norvegicus, UniProt P33535); assay: MOR radioligand competition binding assay ([3H]-DAMGO); settings: Mu screening results
T1 construct: Rat cortices were homogenized using 50 mM Tris, pH 7.4, and centrifuged at 16,500 rpm for 10 min; from tissue; host or cells: rat cortex membranes
T1 sequence (P33535 whole entry): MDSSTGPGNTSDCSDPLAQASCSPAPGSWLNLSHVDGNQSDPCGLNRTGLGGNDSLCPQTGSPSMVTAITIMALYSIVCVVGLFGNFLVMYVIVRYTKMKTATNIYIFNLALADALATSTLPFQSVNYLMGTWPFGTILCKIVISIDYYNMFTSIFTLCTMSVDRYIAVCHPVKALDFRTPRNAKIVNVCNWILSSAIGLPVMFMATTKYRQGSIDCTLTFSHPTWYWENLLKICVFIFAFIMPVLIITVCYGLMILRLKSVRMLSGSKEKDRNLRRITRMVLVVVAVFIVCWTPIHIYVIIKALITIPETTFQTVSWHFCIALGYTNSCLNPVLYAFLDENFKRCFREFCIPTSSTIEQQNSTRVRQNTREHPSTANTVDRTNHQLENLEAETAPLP
Outline: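 Rat cortical membranes in 50 mM Tris pH 7.4 with 2 mg/mL bovine serum were incubated with 2 nM [3H]-DAMGO and test compound. Bound radioligand was separated by filtration on BSA-soaked GF/B filters and counted by scintillation. Values are mean ± SD of two experiments, each in duplicate.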

C57BL/6J mice [1] = assay: 55 °C warm-water tail-withdrawal assay (antinociception); assay type: in vivo, mouse
Procedure: For intracerebroventricular (i.c.v.) administration, the 1968-series compounds were dissolved in dimethyl sulfoxide (DMSO), followed by the addition of sterile saline (0.9%) so that the final vehicle was 50% DMSO and 50% saline, and the i.c.v. injections were performed as described previously. For per os (p.o.) administration, 1968-4 and 1968-22 were administered in 10% Ethanol/10%Tween-80/80% 0.9% saline. All solutions for animal administration were prepared fresh daily.
Antinociception was calculated according to the following formula: % antinociception = 100 × (test latency − control latency)/(15 − control latency). Tail-withdrawal data points are the means of 8–16 mice, unless otherwise indicated, with SEM shown by error bars.
All dose–response lines were analyzed by regression, and ED50 (effective dose producing 50% antinociception) values and 95% confidence intervals (C.I.) were determined using individual data points from graded dose–response curves with Prism 8.0 software (GraphPad, La Jolla, CA, USA). Percent antinociception was used to determine within group effects and to allow comparison to baseline latency in tail-withdrawal experiments. The statistical significance of differences between ED50 values was determined by evaluation of the ED50 value shift via nonlinear regression modeling with Prism software. Significant differences in behavioral data were analyzed by ANOVA (one-way or two-way with repeated measures (RM), as appropriate). Significant results were further analyzed with Sidak’s, Tukey’s, or Dunnett’s multiple comparison post hoc tests, as appropriate. Data for conditioned place preference experiments were analyzed by two-way RM ANOVA, with analyses examining the main effect of the conditioned place preference phase (e.g., pre- or post-conditioning) and the interaction of drug pretreatment. Significant effects were further analyzed using Sidak’s HSD post hoc testing. All data are presented as mean ± SEM, with significance set at p < 0.05.

C57BL/6J mice [2] = assay: Opioid receptor involvement in antinociception (antagonist pretreatment, tail-withdrawal assay); assay type: in vivo, mouse
Procedure: Pretreatment of mice with the opioid antagonist naloxone (10 mg/kg, s.c., −15 min) was used to assess receptor contribution to the observed antinociception induced by maximal tested doses of each 1968-series compound tested.
The opioid receptor involvement in the agonist activity of the heterocyclic peptidomimetics was determined by pretreating mice with a single dose of β-funaltrexamine (β-FNA, 10 mg/kg, i.p.) or nor-BNI (10 mg/kg, i.p.) 24 h in advance of administration of a dose of 1968-series compound.

[3] = LC-MS/MS analysis of blood and perfused brain after i.v. administration; assay type: in vivo, mouse
Procedure: To assess the stability of 1968-22 in plasma and evaluate CNS penetration, blood and perfused brains were collected from mice 5, 15, and 30 min after (i.v.) administration of the bis-cyclic guanidine (10 mg/kg, i.v.).
Figure 5 LC-MS/MS analysis of 1968-22 ([…].) in blood and brain samples isolated from treated mice over 30 min. Control mice received vehicle (10% Ethanol/10%Tween-80/80% 0.9% saline) and were harvested immediately. Points are mean AUC ± SEM for the summed ion extracted chromatographs of 1968-22 from three mice/time points.

C57BL/6J mice [4] = assay: Ambulation (locomotor activity) in CLAMS/Oxymax system; assay type: in vivo, mouse; settings: i.c.v.
Procedure: Respiration rates (in breaths per minute) and animal locomotive activity (as ambulations) were assessed using the Oxymax/CLAMS system (Columbus Instruments, Columbus, OH), as described previously. Mice were habituated to their individual sealed housing chambers for 60 min before testing. Mice were administered 1968-22 (0.3–100 nmol, i.c.v.), morphine (100 nmol, i.c.v.), or vehicle, as indicated, and five min later confined to the CLAMS testing chambers. Pressure monitoring within the sealed chambers measured frequency of respiration. Infrared beams located in the floor measured locomotion as number of beam breaks. Respiration and locomotive data were averaged over 20 min periods for 120 min post-injection of the test compound. Data are presented as % vehicle response ± SEM, ambulation or breaths per minute.

C57BL/6J mice [5] = assay: Conditioned place preference / aversion; assay type: in vivo, mouse; settings: 0.1, 1 or 10 nmol, i.c.v.; two days of place conditioning
C57BL/6J mice [6] = assay: Acute antinociceptive tolerance determination; settings: i.c.v.
C57BL/6J mice [7] = assay: Opioid antagonist activity of 1968-22 against opioid agonists (tail-withdrawal assay)

With `Cc1cc(O)cc(C)c1C[C@H]1CN([C@@H](Cc2c(C)cc(O)cc2C)CN2C(=N)NC[C@@H]2C)C(=N)N1` [1968-22] the Ki (mu-opioid receptor (MOR); experiment 1, unit inferred, read-out: Ki (Exp 1)) was 7.68 nM, the Ki (mu-opioid receptor (MOR); experiment 2, unit inferred, read-out: Ki (Exp 2)) was 7.31 nM and the Ki (mu-opioid receptor (MOR); mean of Exp 1 and Exp 2, unit inferred, read-out: MEAN (Ki)) was 7.49 nM. The Ki (mu-opioid receptor (MOR); mean of two experiments, read-out: Ki) was 7 nM, the “antinociception after oral administration (in words)” value (C57BL/6J mice [1]; 10 mg/kg, p.o.) was “significant antinociception” and the “time of peak antinociception after i.c.v. administration” value (C57BL/6J mice [1]; i.c.v.) was 20 min. The “ED50 (and 95% Confidence Interval (C.I.)) Values, i.c.v. (nmol)” value (C57BL/6J mice [1]; i.c.v., antinociception at peak response, mice, * ED50 estimated where maximum antinociception not achieved) was 0.011 (0.005–0.026) nmol, the “duration of significant antinociception” value (C57BL/6J mice [1]; i.c.v., maximum doses tested) was 70 min and the “effect of naloxone pretreatment on antinociception” value (C57BL/6J mice [2]; naloxone 10 mg/kg, s.c., −15 min, maximal tested i.c.v. dose of compound) was “most susceptible to antagonism by naloxone; also recorded: blocked fully”. The “effect of naltrindole (DOR antagonist) pretreatment on antinociception” value (C57BL/6J mice [2]; naltrindole 20 mg/kg, i.p., −20 min, 1968-16 30 nmol or 1968-22 0.3 nmol, i.c.v.) was “significantly antagonized”, the “effect of nor-BNI (KOR antagonist) pretreatment on antinociception” value (C57BL/6J mice [2]; nor-BNI 10 mg/kg, i.p., −24 h, 1968-16 30 nmol or 1968-22 0.3 nmol, i.c.v.) was “significantly antagonized” and the “effect of β-FNA (MOR antagonist) pretreatment on antinociception” value (C57BL/6J mice [2]; β-FNA 10 mg/kg, i.p., −24 h, 1968-16 30 nmol or 1968-22 0.3 nmol, i.c.v.) was “significantly antagonized”. For the same compound, the “time detectable / stable in blood after i.v. administration” value ([3]; 10 mg/kg) was “at least 30 min”, the “levels in perfused brain by LC-MS/MS” value ([3]; 10 mg/kg, 5, 15 and 30 min) was “negligible levels” and the “detection in serum by LC-MS/MS” value ([3]; 10 mg/kg, within 5 min of administration) was “readily detected”. The “effect on ambulation vs vehicle” value (C57BL/6J mice [4]; 0.3 nmol, 0–20 min) was “brief reductions in ambulations”, the “effect on ambulation vs vehicle” value (C57BL/6J mice [4]; 100 nmol) was “elevated ambulations” and the “effect on ambulation vs vehicle” value (C57BL/6J mice [4]; 1 or 10 nmol) was “without significant effect”. The place conditioning result (C57BL/6J mice [5]) was “no significant preference or aversion”, the “acute antinociceptive tolerance (in words)” value (C57BL/6J mice [6]) was “significant tolerance” and the “ED50 (95% C.I.) of second dose at 8 h” value (C57BL/6J mice [6]; after ED50 pretreatment at 0 h) was 0.18 (0.09–0.32) nmol. For the same compound, the “antagonism of SNC-80-induced antinociception” value (C57BL/6J mice [7]; 2.5 h pretreatment, 0.3 nmol i.c.v., SNC-80 100 nmol, i.c.v.) was “significantly antagonized”, the “antagonism of morphine-induced antinociception” value (C57BL/6J mice [7]; 2.5 h pretreatment, 0.3 nmol i.c.v., morphine 10 mg/kg, i.p.) was “did not have an effect” and the “pretreatment dose giving maximal antagonism of SNC-80” value (C57BL/6J mice [7]; i.c.v. pretreatment, SNC-80 100 nmol, i.c.v.) was 3 nmol.
